In ChEMBL document CHEMBL1201862, “PubChem BioAssay data set” (2004):
The source made the active and inactive calls.

Legend:
Candida albicans [1] = experiment: reversal of fluconazole resistance in C. albicans, dose response, CaCi-2 strain, Alamar Blue, dry powder, set 3 (AID 488907); type: functional, organism-based
Candida albicans [2] = experiment: Candida albicans growth inhibition, agent alone, dose response, counter-screen for reversing antifungal drug resistance, CaCi-2 strain, no fluconazole, dry powder, set 4 (AID 488932); type: functional, organism-based
Candida albicans [3] = experiment: fluconazole resistance reversal in C. albicans, dose response, CaCi-2 strain, Alamar Blue, dry powder, set 4 (AID 488943); type: functional, organism-based
Candida albicans [4] = experiment: growth inhibition of resistant C. albicans, dose response, CaCi-8 strain, fluconazole, dry powder, set 4 (AID 488950); type: functional, organism-based
[5] = Luminescence Cell-Based/Microorganism Confirmation at Dose of Inhibitors of Trypanosoma cruzi Infection. [Related pubchem assays: 1885, 1968 ]; type: functional
[6] = inhibitors of intracellular T. cruzi replication, confirmation, NIH3T3 host cells, beta-gal luminescence (AID 2044); type: functional, cell-based;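 also: intracellular parasites grown in NIH/3T3 mouse fibroblasts as host cells; luminescent beta-galactosidase reporter signal from transgenic T. cruzi replicating inside host cells; inhibitors lower the luminescence signal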
[7] = Luminescence Cell-Based Secondary HTS screen to identify cytotoxic compounds of NIH3T3 cells. [Related pubchem assays: 1885, 1968 ]; type: functional
[8] = inhibitors of Trypanosoma cruzi host-cell infection, confirmation, beta-gal luminescence, NIH3T3 host cells (AID 2630); type: functional, cell-based; conditions: Mus musculus
[9] = cytotoxicity toward NIH3T3 fibroblasts, dose response, counter-screen, cell-based, ATP luminescence, mouse fibroblasts (AID 2010); type: functional;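 also: cells exposed to compound for about 90 hours before reading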
Candida albicans [10] = experiment: growth inhibition of resistant C. albicans, dose response, CaCi-8, fluconazole, Alamar Blue, dry powder (AID 488807); type: functional, organism-based
[11] = Luminescence Cell-Based Dose Response Follow up to Identify Inhibitors of Platelet Dense Granule Release. [Related pubchem assays (depositor defined):AID1663, AID1678, AID1889, AID2519]; type: functional
[12] = blockers of SFLLRN-triggered platelet ATP secretion – cell-based, human platelets, luminescence, dry powder, dose response (AID 493100); type: functional
[13] = target: T1, Heat shock factor protein 1 (Mus musculus, UniProt P38532); experiment: HSF1 potentiators in luciferase reporter cells, confirmation, cell-based, NIH3T3, luminescence, dose retest (AID 435004); type: functional;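 also: stress induced by proteasome inhibitor MG132 added 30 min after compound; luciferase reporter driven by HSF1 response element in NIH3T3 cells; actives raise luminescence as potentiators of the MG132 stress response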
T1 sequence (P38532 whole entry): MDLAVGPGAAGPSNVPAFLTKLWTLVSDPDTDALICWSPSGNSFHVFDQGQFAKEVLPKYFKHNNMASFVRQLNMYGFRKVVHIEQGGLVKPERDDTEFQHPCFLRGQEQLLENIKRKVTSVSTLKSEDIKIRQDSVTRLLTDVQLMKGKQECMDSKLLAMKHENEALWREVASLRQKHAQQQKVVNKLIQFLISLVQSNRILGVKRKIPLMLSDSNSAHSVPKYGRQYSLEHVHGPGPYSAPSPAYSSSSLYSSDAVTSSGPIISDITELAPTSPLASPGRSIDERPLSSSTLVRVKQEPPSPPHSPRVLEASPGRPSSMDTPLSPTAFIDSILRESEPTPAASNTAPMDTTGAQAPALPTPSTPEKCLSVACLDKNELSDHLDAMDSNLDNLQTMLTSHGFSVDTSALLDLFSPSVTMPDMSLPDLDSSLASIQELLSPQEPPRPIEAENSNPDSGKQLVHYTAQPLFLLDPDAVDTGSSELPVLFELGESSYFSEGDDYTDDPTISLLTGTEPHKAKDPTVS

Vero [14] = experiment: cells; type: functional; conditions: Chlorocebus sabaeus
Vero [15] = experiment: cells; type: functional, cell-based; conditions: Chlorocebus sabaeus
[16] = StAR promoter reporter inhibition counter-screen, dose response, counter-screen for LRH-1 inverse agonist project, cell-based, luminescence, luciferase reporter (AID 651969); type: functional
[17] = target: Nuclear receptor subfamily 5 group A member 2 (Homo sapiens, UniProt O00482); type: functional, cell-based;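 also: HEK293T cells transfected with LRH-1 and a StAR promoter luciferase reporter; potency for inhibitors that lower LRH-1 driven reporter light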
Steroidogenic factor 1 = Steroidogenic factor 1 (Homo sapiens, UniProt Q13285); experiment: Counterscreen for inverse agonists of the liver receptor homolog-1 (LRH-1; NR5A2): Luminescence-based cell-based high throughput dose response assay to identify inverse agonists of the Steroidogenic Factor 1 Nuclear Receptor (SF1; NR5A1).; type: functional
[18] = target: T2, Dual specificity protein phosphatase 6 (Rattus norvegicus, UniProt Q64346)
T2 sequence (Q64346 whole entry): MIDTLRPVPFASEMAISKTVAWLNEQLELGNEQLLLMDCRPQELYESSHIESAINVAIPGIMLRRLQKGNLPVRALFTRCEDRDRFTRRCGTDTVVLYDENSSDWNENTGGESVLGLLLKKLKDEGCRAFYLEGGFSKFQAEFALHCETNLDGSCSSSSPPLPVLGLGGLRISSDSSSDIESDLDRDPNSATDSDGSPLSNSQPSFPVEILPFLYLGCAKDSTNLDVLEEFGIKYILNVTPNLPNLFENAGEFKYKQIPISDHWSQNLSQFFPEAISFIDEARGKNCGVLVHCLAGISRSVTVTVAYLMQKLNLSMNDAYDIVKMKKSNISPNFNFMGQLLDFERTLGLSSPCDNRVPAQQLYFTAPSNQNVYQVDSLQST

[19] = target: Glyceraldehyde-3-phosphate dehydrogenase (Homo sapiens, UniProt P04406)
[20] = target: T2, Dual specificity protein phosphatase 6; type: functional
[21] = target: T3, Tyrosine-protein phosphatase non-receptor type 7 (Homo sapiens, UniProt P35236); type: functional
T3 sequence (P35236 whole entry): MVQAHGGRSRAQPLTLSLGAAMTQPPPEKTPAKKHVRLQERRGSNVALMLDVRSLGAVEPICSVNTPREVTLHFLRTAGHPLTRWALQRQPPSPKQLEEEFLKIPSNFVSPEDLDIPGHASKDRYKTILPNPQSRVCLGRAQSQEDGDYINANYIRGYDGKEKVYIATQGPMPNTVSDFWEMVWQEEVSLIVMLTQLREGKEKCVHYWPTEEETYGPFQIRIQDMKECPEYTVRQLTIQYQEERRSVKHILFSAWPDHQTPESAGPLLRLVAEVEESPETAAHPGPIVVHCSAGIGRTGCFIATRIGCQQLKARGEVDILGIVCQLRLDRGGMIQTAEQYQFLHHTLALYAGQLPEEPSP

[22] = target: Dual specificity protein phosphatase 3 (Homo sapiens, UniProt P51452); experiment: SAR VHR1 Fluorescent Assay for In Vitro dose response studies Set 3. [Related pubchem assays (depositor defined):AID1654, AID1661, AID1878]; type: functional
[23] = target: T4, Carboxy-terminal domain RNA polymerase II polypeptide A small phosphatase 1 (Homo sapiens, UniProt Q9GZU7); experiment: inhibitors of CTDSP1, concentration-response testing, biochemical assay, absorbance-based, actives from ultra-high-throughput screening (AID 540297); type: functional
T4 sequence (Q9GZU7 whole entry): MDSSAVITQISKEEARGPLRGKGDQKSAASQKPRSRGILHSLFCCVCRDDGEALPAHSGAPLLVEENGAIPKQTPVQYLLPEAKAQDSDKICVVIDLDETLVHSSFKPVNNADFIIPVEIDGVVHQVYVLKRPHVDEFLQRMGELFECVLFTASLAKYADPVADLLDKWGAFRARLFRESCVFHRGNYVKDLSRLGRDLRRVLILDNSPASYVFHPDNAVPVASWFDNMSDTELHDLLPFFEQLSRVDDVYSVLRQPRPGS

[24] = target: DNA (cytosine-5)-methyltransferase 1 (Homo sapiens, UniProt P26358); experiment: DNMT1 methyltransferase inhibitors, confirmation, biochemical, fluorescent molecular beacon (AID 602386); type: functional
[25] = target: T5, Small ubiquitin-related modifier 1 (Homo sapiens, UniProt P63165); experiment: inhibitors of SUMO1 peptide binding, dose response, biochemical, fluorescence polarization, uHTS hits (AID 624382); type: functional; conditions: read-out: IC50_Mean
[26] = target: DNA dC->dU-editing enzyme APOBEC-3G (Homo sapiens, UniProt Q9HC16); experiment: Dose Response confirmation of small molecule APOBEC3G DNA Deaminase Inhibitors via a fluorescence-based single-stranded DNA deaminase assay. [Related pubchem assays (depositor defined):AID493012, AID493028]; type: functional
[27] = target: Induced myeloid leukemia cell differentiation protein Mcl-1 (Homo sapiens, UniProt Q07820); type: functional
[28] = target: T5, Small ubiquitin-related modifier 1; experiment: inhibitors of SUMO1 partner interactions, dose response, biochemical, FRET (AID 624383); type: functional; conditions: read-out: IC50_Mean
[29] = target: DNA dC->dU-editing enzyme APOBEC-3A (Homo sapiens, UniProt P31941); experiment: APOBEC3A DNA deaminase inhibitors, dose response, biochemical (AID 504722); type: functional
[30] = target: T6, Apoptotic protease-activating factor 1 (Homo sapiens, UniProt O14727); experiment: activation of Apaf-1 mediated apoptosis – fluorescent, uHTS hits, dose response (AID 588554); type: functional
T6 sequence (O14727 whole entry): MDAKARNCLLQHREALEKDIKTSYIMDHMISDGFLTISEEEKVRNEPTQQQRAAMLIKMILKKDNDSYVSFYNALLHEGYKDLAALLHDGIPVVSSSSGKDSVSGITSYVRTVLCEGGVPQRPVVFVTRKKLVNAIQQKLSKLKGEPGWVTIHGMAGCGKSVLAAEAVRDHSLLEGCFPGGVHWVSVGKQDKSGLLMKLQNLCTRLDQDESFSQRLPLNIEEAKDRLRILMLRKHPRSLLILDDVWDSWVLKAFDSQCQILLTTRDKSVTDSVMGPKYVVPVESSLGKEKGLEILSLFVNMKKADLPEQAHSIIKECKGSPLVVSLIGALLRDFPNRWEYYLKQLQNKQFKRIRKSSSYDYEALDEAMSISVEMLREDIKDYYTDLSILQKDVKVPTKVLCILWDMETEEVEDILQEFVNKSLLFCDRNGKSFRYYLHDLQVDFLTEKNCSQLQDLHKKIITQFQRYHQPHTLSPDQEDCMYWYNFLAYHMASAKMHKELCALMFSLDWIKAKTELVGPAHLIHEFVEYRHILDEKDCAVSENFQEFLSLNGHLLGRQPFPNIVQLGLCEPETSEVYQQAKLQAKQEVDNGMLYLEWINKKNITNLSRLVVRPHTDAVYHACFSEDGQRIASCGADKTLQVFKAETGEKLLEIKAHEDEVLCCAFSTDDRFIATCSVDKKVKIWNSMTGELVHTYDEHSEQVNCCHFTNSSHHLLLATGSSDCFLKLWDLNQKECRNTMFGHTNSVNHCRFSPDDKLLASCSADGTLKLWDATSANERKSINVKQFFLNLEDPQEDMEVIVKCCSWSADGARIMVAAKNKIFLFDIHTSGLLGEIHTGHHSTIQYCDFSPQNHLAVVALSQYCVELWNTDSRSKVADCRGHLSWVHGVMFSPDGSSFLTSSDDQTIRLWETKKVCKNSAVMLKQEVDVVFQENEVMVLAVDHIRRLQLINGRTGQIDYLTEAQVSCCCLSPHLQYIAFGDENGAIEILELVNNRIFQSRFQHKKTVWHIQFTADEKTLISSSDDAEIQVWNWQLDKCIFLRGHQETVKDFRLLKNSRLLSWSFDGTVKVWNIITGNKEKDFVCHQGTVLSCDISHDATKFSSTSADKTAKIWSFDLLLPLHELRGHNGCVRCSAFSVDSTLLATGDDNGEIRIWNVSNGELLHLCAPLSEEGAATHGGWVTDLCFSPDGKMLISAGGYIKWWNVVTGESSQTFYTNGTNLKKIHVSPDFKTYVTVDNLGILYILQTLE

[31] = target: Dual specificity protein kinase CLK1 (Homo sapiens, UniProt P49759); experiment: CLK1 kinase inhibitors, off-target check, dose response, selectivity assay for Dyrk1A inhibitor project, biochemical, cherry-picked samples (AID 588811)
[32] = target: Dual specificity tyrosine-phosphorylation-regulated kinase 1A (Rattus norvegicus, UniProt Q63470); type: biochemical, Homo sapiens

T5 sequence (P63165 whole entry): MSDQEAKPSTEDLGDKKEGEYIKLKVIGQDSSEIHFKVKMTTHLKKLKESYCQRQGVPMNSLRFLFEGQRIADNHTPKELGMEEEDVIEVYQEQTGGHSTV
Sequence of Induced myeloid leukemia cell differentiation protein Mcl-1 (Q07820 whole entry): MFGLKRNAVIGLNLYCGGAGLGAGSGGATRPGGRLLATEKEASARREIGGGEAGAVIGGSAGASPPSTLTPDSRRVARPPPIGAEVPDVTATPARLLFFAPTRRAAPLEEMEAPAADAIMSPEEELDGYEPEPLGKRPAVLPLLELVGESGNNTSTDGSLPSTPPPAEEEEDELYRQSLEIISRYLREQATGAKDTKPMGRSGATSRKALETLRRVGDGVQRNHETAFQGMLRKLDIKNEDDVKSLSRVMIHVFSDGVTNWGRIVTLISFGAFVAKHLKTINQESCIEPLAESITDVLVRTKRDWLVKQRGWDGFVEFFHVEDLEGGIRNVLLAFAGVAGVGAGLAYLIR
Sequence of Nuclear receptor subfamily 5 group A member 2 (O00482 whole entry): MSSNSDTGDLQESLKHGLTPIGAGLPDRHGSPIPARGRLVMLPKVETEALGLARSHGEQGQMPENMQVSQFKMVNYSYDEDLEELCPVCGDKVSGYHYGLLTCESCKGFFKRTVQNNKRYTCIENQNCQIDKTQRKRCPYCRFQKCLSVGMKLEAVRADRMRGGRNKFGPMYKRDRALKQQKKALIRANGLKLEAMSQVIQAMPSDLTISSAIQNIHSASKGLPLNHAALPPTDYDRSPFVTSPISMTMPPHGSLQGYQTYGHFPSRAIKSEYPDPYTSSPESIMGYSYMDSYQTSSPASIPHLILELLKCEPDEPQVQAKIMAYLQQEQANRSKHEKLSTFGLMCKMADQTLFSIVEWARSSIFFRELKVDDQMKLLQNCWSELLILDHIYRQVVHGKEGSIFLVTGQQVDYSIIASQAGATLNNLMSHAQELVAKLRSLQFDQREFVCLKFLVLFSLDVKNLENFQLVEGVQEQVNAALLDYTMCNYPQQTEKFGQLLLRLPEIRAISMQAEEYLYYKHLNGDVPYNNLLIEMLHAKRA
Sequence of DNA dC->dU-editing enzyme APOBEC-3A (P31941 whole entry): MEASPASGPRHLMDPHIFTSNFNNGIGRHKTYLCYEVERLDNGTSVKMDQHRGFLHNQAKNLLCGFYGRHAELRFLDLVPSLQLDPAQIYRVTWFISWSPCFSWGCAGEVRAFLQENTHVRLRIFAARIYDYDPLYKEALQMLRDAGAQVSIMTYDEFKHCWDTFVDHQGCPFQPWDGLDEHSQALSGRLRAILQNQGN
Sequence of Dual specificity protein phosphatase 3 (P51452 whole entry, the tested form may be a part): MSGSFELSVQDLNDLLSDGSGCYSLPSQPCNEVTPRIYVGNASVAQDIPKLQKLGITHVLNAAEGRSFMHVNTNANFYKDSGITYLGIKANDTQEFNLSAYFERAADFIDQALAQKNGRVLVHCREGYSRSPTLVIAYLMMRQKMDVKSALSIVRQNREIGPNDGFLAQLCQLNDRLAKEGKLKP
Sequence of DNA (cytosine-5)-methyltransferase 1 (P26358 whole entry): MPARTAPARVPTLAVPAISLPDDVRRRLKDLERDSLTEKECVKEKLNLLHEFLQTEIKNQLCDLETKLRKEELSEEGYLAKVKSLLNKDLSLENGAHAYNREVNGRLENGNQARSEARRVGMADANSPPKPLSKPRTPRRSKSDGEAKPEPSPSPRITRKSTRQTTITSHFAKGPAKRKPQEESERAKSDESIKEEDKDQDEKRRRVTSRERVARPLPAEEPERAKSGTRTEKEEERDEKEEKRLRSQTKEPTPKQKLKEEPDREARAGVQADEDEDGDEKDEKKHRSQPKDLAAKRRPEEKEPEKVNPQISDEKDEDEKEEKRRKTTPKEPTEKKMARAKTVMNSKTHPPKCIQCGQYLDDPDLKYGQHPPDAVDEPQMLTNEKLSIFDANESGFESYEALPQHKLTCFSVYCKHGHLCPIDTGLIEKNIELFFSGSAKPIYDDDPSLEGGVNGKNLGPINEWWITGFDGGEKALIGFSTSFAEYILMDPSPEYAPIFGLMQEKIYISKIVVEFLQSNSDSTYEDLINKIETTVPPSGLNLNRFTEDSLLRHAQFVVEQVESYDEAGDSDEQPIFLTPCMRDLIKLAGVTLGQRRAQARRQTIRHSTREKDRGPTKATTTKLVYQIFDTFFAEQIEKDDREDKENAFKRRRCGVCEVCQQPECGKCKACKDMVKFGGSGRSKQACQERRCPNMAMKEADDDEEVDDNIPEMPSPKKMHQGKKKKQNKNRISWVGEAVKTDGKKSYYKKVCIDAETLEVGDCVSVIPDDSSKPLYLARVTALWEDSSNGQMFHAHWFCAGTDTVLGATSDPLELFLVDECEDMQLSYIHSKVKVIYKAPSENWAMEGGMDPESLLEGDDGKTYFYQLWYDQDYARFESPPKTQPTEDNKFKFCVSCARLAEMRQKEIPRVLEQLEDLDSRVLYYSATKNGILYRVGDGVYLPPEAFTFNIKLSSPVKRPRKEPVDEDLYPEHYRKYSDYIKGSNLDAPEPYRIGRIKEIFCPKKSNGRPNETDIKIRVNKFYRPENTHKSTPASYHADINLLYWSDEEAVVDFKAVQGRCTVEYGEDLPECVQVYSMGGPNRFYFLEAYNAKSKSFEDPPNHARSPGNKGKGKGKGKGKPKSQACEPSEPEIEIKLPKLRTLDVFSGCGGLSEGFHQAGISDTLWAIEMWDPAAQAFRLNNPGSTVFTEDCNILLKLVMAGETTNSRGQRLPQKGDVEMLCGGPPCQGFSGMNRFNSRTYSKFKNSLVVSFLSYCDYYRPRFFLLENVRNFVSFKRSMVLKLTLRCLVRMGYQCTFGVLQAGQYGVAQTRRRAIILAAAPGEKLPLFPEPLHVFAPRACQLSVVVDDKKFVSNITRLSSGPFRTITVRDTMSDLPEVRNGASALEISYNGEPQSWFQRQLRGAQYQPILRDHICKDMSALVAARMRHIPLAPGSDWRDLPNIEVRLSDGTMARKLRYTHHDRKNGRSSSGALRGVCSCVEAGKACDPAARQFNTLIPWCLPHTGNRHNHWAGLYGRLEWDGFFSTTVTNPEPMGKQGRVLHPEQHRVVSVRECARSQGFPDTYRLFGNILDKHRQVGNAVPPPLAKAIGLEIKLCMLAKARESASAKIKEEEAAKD
Sequence of Glyceraldehyde-3-phosphate dehydrogenase (P04406 whole entry): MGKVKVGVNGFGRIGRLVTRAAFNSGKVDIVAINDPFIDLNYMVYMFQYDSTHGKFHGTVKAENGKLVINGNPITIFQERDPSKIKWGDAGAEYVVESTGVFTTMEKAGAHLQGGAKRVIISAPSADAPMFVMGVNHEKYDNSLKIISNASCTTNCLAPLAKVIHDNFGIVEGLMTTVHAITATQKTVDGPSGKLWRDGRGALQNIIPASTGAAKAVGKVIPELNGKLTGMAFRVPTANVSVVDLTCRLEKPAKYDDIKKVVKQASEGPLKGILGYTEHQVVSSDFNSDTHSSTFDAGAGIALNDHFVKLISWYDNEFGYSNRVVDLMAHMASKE
Sequence of Steroidogenic factor 1 (Q13285 whole entry): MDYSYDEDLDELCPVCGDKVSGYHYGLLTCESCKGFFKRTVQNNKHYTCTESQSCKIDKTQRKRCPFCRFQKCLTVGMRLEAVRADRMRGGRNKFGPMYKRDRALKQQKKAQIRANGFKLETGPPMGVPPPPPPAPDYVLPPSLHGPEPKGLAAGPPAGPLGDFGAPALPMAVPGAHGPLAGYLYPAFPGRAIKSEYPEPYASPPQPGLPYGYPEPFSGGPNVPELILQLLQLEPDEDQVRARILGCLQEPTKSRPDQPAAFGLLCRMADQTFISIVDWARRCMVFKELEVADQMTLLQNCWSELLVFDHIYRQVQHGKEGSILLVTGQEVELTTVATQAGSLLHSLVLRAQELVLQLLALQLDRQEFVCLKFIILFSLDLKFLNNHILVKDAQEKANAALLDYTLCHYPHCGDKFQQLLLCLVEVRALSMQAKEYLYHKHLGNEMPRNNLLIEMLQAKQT
Sequence of Dual specificity protein kinase CLK1 (P49759 whole entry): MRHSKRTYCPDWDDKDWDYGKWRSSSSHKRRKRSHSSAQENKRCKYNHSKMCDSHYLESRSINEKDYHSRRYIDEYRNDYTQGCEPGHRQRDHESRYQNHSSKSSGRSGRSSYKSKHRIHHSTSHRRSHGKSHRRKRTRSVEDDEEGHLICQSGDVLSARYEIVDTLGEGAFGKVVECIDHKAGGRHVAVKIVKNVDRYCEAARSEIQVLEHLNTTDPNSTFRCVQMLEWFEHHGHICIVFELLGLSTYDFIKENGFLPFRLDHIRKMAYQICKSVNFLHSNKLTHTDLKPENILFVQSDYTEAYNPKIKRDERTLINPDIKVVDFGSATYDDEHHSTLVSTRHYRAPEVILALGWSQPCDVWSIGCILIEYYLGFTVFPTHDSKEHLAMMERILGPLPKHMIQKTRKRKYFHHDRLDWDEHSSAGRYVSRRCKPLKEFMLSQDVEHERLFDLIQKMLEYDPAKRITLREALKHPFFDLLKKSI
Sequence of DNA dC->dU-editing enzyme APOBEC-3G (Q9HC16 whole entry): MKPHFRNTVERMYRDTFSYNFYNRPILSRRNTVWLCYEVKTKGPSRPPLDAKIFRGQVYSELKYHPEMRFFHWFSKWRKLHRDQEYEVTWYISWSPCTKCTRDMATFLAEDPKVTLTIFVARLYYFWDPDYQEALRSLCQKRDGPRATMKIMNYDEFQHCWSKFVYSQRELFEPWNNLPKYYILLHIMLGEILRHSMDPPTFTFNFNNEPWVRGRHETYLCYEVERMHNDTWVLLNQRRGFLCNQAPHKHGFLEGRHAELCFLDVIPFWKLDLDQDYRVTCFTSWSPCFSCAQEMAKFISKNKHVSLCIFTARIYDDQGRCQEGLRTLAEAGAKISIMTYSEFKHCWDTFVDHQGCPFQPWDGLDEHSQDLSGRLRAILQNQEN

## Cn1ccnc1N1CCN(C(=O)c2ccc(Cl)cc2)CC1
Candida albicans [1]
  AC50: 0.587 µM (active)
Candida albicans [2]
  AC50: > 260 µM (inactive)
Candida albicans [3]
  AC50: 8.2 µM (active)
Candida albicans [4]
  AC50: 224 µM (active)

## CC(C)=CCCC(C)CN(C)CCc1ccccn1 (stereo unspecified)
[5]
  EC50: 0.027 µM (active)
[6]
  EC50: < 0.1 µM (active)
[7]
  EC50: > 195 µM (not active)
cells
  EC50: 0.083 µM (active)
[8]
  EC50: 0.027 µM (active)
[9]
  EC50: > 60 µM (not active)

## O=C(c1ccccc1)N1CCN(c2ccnc3cc(Cl)ccc23)CC1
Candida albicans [3]
  AC50: 1.69 µM (active)
Candida albicans [10]
  AC50: 5.68 µM (active)
Candida albicans [4]
  AC50: 2.05 µM (active)

## C/C(=N/NC(=O)C1CCCC1)c1ccc(NC(=O)C(F)(F)F)cc1
[11]
  EC50: 0.802 µM (active)
[12]
  AC50: 12.3 µM (active)

## O=C(Nc1ccc(Br)cn1)c1ccc([N+](=O)[O-])o1
[13]
  EC50: 16.7 µM (active)
Vero [14]
  CC50: 13.8 µM (active)
Vero [15]
  IC50: > 25 µM (active)
[16]
  IC50: 35.9 µM (inactive)
[17]
  IC50: 35.9 µM (inactive)
Steroidogenic factor 1
  IC50: 35.9 µM (inactive)

## CCCCCCCCCCCCCCCCCCC#CCCCCCCCCCCC(=O)O
[18]
  IC50: > 100 µM (inactive)
[19]
  IC50: > 100 µM (not active)
[20]
  IC50: > 100 µM (inactive)
[21]
  IC50: 15.2 µM (active)

## COc1ccc(C(=O)Nc2nc3c(OC)cccc3s2)cc1
[22]
  IC50: 41.9 µM (active)

## C=C(C)C(=O)Nc1cccc(C2=NOC3(C2)C[C@@H](C(N)=O)N(C(=O)C(=C)C)C3)c1 (stereo partly specified)
[23]
  IC50: 1.89 µM (active)
[24]
  IC50: 4.95 µM (active)
[25]
  IC50: > 66.6 µM (inactive)
[26]
  IC50: 5.94 µM (active)
[27]
  IC50: 3.08 µM (not active)
[28]
  IC50: 2.56 µM (active)
[29]
  IC50: > 100 µM (inactive)
[30]
  EC50: 1.24 µM (active)

## CC(=O)Nc1ccc(Nc2cc(C)nc3c(-c4ccccc4)cnn23)cc1
[31]
  AC50: 15.3 µM (active)
[32]
  AC50: 5.54 µM (active)
